For this assay, the target named is T1, N-terminally GST-tagged DLK (catalytic domain amino acid 1-520) (Homo sapiens, UniProt Q12852).
T1 construct: N-terminally GST-tagged DLK (catalytic domain amino acid 1-520); purchased Carna Bioscience
T1 sequence (Q12852 1-520): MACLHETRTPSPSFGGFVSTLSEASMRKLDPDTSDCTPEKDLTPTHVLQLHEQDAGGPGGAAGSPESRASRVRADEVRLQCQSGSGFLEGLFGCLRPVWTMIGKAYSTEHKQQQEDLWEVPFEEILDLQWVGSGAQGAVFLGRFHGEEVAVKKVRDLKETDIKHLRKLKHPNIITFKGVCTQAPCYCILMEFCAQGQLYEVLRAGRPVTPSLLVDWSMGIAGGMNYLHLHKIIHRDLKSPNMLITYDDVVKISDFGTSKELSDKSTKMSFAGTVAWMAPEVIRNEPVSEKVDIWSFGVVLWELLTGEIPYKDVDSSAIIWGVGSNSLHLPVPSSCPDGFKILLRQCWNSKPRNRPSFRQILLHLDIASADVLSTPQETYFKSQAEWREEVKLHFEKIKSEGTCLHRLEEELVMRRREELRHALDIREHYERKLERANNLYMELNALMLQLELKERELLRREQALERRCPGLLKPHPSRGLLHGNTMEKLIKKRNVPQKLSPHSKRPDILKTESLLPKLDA
Description: DLK TR-FRET inhibition assay. In kind it is biochemical. The following applies: 5 nM GST-DLK, 40 nM HIS-MKK4 K131M substrate, 30 μM ATP, 60 minutes at ambient temperature. The method in brief:
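5 nM GST-DLK (aa 1-520), 40 nM HIS-MKK4 K131M and 30 μM ATP reacted 60 min at ambient temperature in HEPES pH 7.5 buffer with 10 mM MgCl2, compound 1:3 serially diluted from 20 uM. TR-FRET detection of phospho-MKK4 used Eu-cryptate anti-phospho-MKK4 plus D2 anti-HIS, read after 3 h (665/615 nm).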
A word on the Ki: it is the equilibrium dissociation constant of an inhibitor or competing ligand from its target. A higher Ki goes with a looser hold on the target. `CC(C)n1nc(-c2cnc(N)c(OC(F)F)c2)cc1[C@H]1[C@@H]2C[C@@H](F)C[C@@H]21` [compound 217, 3-(difluoromethoxy)-5-(5-((1R,3s,5S,6r)-3-fluorobicyclo[3.1.0]hexan-6-yl)-1-isopropyl-1H-pyrazol-3-yl)pyridin-2-amine] had a Ki of 4.2 nM.
As for `CC(C)n1nc(-c2cnc(N)c(OC(F)(F)F)c2)cc1[C@H]1[C@@H]2C[C@@H](N3CCN(C)CC3)C[C@@H]21` [compound 66, 5-(1-isopropyl-5-((1R,3s,5S,6r)-3-(4-methylpiperazin-1-yl)bicyclo [3.1.0]hexan-6-yl)-1H-pyrazol-3-yl)-3-(trifluoromethoxy) pyridin-2-amine], the figure is 2.26 nM.
Consider `CC(C)n1nc(-c2cnc(N)c(OC(F)F)c2)cc1[C@H]1[C@@H]2C[C@@H](N3CCN(C)C[C@@H]3C)C[C@@H]21` [compound 241, 3-(difluoromethoxy)-5-(5-((1R,3s,5S,6S)-3-((S)-2,4-dimethyl-piperazin-1-yl)bicyclo[3.1.0]hexan-6-yl)-1-isopropyl-1H-pyrazol-3-yl)pyridin-2-amine], for which affinity was put at a Ki of 2 nM.
As for `CC(C)n1nc(-c2cnc(N)c(OC(F)F)c2)cc1[C@H]1[C@@H]2C[C@@H](N3CCN4CCCC4C3)C[C@@H]21` (single isomer, unassigned) [compound 258], the figure is 0.9 nM; as for `CC(C)n1nc(-c2cnc(N)c(C(F)(F)F)c2)cc1[C@H]1[C@@H]2C[C@@H](N)C[C@@H]21` [compound 276, 5-(5-((1R,3s,5S,6r)-3-aminobicyclo [3.1.0]hexan-6-yl)-1-isopropyl-1H-pyrazol-3-yl)-3-(trifluoro-methyl)pyridin-2-amine], 1.8 nM.
As for `Nc1ncc(-c2cc([C@H]3[C@@H]4C[C@H](N5CCCOCC5)C[C@@H]43)n(CC(F)F)n2)cc1OC(F)(F)F` [compound 256, 5-(5-((1R,3r,5S,6r)-3-(1,4-oxazepan-4-yl)bicyclo[3.1.0]hexan-6-yl)-1-(2,2-difluoroethyl)-1H-pyrazol-3-yl)-3-(trifluoromethoxy) pyridin-2-amine], the figure is 1.1 nM.
As for `Nc1ncc(-c2cc([C@H]3[C@@H]4C[C@H](N5CCOCC5)C[C@@H]43)n(CC3CC3)n2)cc1OC(F)F` [compound 274, 5-(1-(cyclopropylmethyl)-5-((1R,3r,5S,6r)-3-morpholinobicyclo [3.1.0]hexan-6-yl)-1H-pyrazol-3-yl)-3-(difluoromethoxy)pyridin-2-amine], the figure is 1.3 nM; as for `CC(C)n1nc(-c2cnc(N)c(C(F)(F)F)c2)cc1[C@H]1[C@@H]2C[C@@H](N3C[C@@H]4C[C@H]3CN4C)C[C@@H]21` [compound 207, 5-(1-isopropyl-5-((1R,3s,5S,6S)-3-((1S,4S)-5-methyl-2,5-diazabicyclo [2.2.1]heptan-2-yl)bicyclo [3.1.0]hexan-6-yl)-1H-pyrazol-3-yl)-3-(trifluoromethyl) pyridin-2-amine], 3.6 nM.
As to `CC(C)n1nc(-c2cnc(N)c(OC(F)F)c2)cc1[C@H]1[C@@H]2C[C@@H](Cl)C[C@@H]21` [compound 236, 5-(5-((1R,3s,5S,6r)-3-chlorobicyclo [3.1.0]hexan-6-yl)-1-isopropyl-1H-pyrazol-3-yl)-3-(difluoro-methoxy)pyridin-2-amine], affinity was put at a Ki of 15.8 nM.
As for `CC(C)n1nc(-c2cnc(N)c(OC(F)(F)F)c2)cc1[C@H]1[C@@H]2C[C@H](N3C[C@H]4C[C@@H]3CO4)C[C@@H]21` [compound 56, 5-(5-((1R,3r,5S,6R)-3-((1R,4R)-2-oxa-5-azabicyclo[2.2.1]heptan-5-yl)bicyclo[3.1.0]hexan-6-yl)-1-isopropyl-1H-pyrazol-3-yl)-3-(trifluoromethoxy)pyridin-2-amine], the figure is 4.81 nM; as for `CC(C)n1nc(-c2cnc(N)c(OC(F)F)c2)cc1[C@H]1[C@@H]2C[C@H](N3CCO[C@H](C)C3)C[C@@H]21` [compound 77, 3-(difluoromethoxy)-5-(1-isopropyl-5-((1R,3r,5S,6R)-3-((R)-2-methylmorpholino)bicyclo[3.1.0]hexan-6-yl)-1H-pyrazol-3-yl) pyridin-2-amine], 1.3 nM.
Next, `CC(C)n1nc(-c2cnc(N)c(OC(F)F)c2)cc1[C@H]1[C@@H]2C[C@@]3(CCN3CC(F)F)C[C@@H]21` [compound 162, 5-(5-((1′R,2r,5′S,6′r)-1-(2,2-difluoro-ethyl)spiro[azetidine-2,3′-bicyclo[3.1.0]hexan]-6′-yl)-1-isopropyl-1H-pyrazol-3-yl)-3-(difluoro-methoxy)pyridin-2-amine]: 2.6 nM.
`Nc1ncc(-c2cc([C@H]3[C@@H]4C[C@H](N5CCOCC5)C[C@@H]43)n(CC3CC3)n2)cc1OC(F)(F)F` [compound 295, 5-(1-(cyclopropylmethyl)-5-((1R,3r,5S,6r)-3-morpholinobicyclo [3.1.0]hexan-6-yl)-1H-pyrazol-3-yl)-3-(trifluoromethoxy) pyridin-2-amine]: the Ki turned out to be 2.4 nM.
Molecule `CC(C)n1nc(-c2cnc(N)c(C(F)(F)F)c2)cc1[C@H]1[C@@H]2C[C@@H](N3CCN4CCCC4C3)C[C@@H]21` (single isomer, unassigned) [compound 261] returned a Ki of 1.2 nM.
Next, `CC(C)n1nc(-c2cnc(N)c(C(F)(F)F)c2)cc1[C@H]1[C@@H]2C[C@@H](N3CCS(=O)(=O)CC3)C[C@@H]21` [compound 9, 4-((1R,3s,5S,6r)-6-(3-(6-amino-5-(trifluoromethyl)pyridin-3-yl)-1-isopropyl-1H-pyrazol-5-yl)bicyclo[3.1.0]hexan-3-yl)thio-morpholine 1,1-dioxide]: 4 nM; `CC(C)n1nc(-c2cnc(N)c(OC(F)F)c2)cc1[C@H]1[C@@H]2C[C@@H](N3CCOCC3)C[C@@H]21` [compound 84, 3-(difluoromethoxy)-5-(1-isopropyl-5-((1R,3s,5S,6r)-3-morpholino-bicyclo[3.1.0]hexan-6-yl)-1H-pyrazol-3-yl)pyridin-2-amine]: 1.68 nM.
The molecule `Nc1ncc(-c2cc([C@H]3[C@@H]4C[C@H](N5CCOCC5)C[C@@H]43)n(C3CCC3)n2)cc1OC(F)F` [compound 134, 5-(1-cyclobutyl-5-((1R,3r,5S,6r)-3-morpholinobicyclo[3.1.0]hexan-6-yl)-1H-pyrazol-3-yl)-3-(difluoromethoxy)pyridin-2-amine] displayed a Ki of 1.58 nM.
As for `COC1CN([C@H]2C[C@@H]3[C@H](C2)[C@H]3c2cc(-c3cnc(N)c(OC(F)F)c3)nn2C(C)C)C1` [compound 61, 3-(difluoromethoxy)-5-(1-isopropyl-5-((1R,3r,5S,6r)-3-(3-methoxy-azetidin-1-yl)bicyclo[3.1.0]hexan-6-yl)-1H-pyrazol-3-yl) pyridin-2-amine], the figure is 3.05 nM; as for `CC(C)n1nc(-c2cnc(N)c(OC(F)F)c2)cc1[C@H]1[C@@H]2C[C@H](N3CC4(CCCO4)C3)C[C@@H]21` [compound 225, 5-(5-((1R,3r,5S,6r)-3-(5-oxa-2-azaspiro[3.4]octan-2-yl)bicyclo [3.1.0]hexan-6-yl)-1-isopropyl-1H-pyrazol-3-yl)-3-(difluoro-methoxy)pyridin-2-amine], 4.2 nM; as for `CC(C)n1nc(-c2cnc(N)c(OC(F)(F)F)c2)cc1[C@H]1[C@@H]2C[C@H](N3CC(F)C3)C[C@@H]21` [compound 29, 5-(5-((1R,3r,5S,6r)-3-(3-fluoro-azetidin-1-yl)bicyclo[3.1.0]hexan-6-yl)-1-isopropyl-1H-pyrazol-3-yl)-3-(trifluoromethoxy) pyridin-2-amine], 2.83 nM.
Molecule `CC(C)n1nc(-c2cnc(N)c(OC(F)(F)F)c2)cc1[C@H]1[C@@H]2C[C@H](N3CCOC[C@@H]3C)C[C@@H]21` [compound 97, 5-(1-isopropyl-5-((1R,3r,5S,6S)-3-((S)-3-methylmorpholino)bicyclo[3.1.0]hexan-6-yl)-1H-pyrazol-3-yl)-3-(trifluoromethoxy) pyridin-2-amine] showed a Ki of 4.12 nM.
`CC(C)n1nc(-c2cnc3cnn([C@H](C)c4ccccn4)c3c2)cc1[C@H]1[C@@H]2C[C@@H](N3CCOCC3)C[C@@H]21` [compound 31, 4-((1R,3S,5S,6r)-6-(1-isopropyl-3-(1-((R)-1-(pyridin-2-yl)ethyl)-1H-pyrazolo[4,3-b]pyridin-6-yl)-1H-pyrazol-5-yl)bicyclo[3.1.0]hexan-3-yl)morpholine] had a Ki of 79.4 nM.
In turn, `CC(C)n1nc(-c2cnc(N)c(C(F)(F)F)c2)cc1[C@H]1[C@@H]2CC3(C[C@@H]21)CN(C)C(=O)CO3` (stereo partly drawn) [compound 229, (1R,5S,6r)-6-(3-(6-amino-5-(tri-fluoromethyl)pyridin-3-yl)-1-isopropyl-1H-pyrazol-5-yl)-4′-methylspiro[bicyclo[3.1.0]hexane-3,2′-morpholin]-5′-one] yielded a Ki of 3.9 nM.

(Values after patent US9365583B2, “Substituted pyrazoles and uses thereof” (Genentech, Inc., priority 2013, dated 2016).)
